Experimental data reported in US20120129842A1, “BISTHIAZOLE INHIBITORS OF PRO-MATRIX METALLOPROTEINASE ACTIVATION” (priority 2010, published 2012).
pIC50, pKd: −log10 of the molar value. Counter-ions that a name gives are not always drawn.

Assays:
[1] = target: T1, proMMP9(20-445;ΔFnII) (SEQ ID NO:6) (Homo sapiens, UniProt P14780, DEL216-390); experiment: ThermoFluor binding assay with proMMP9(20-445;ΔFnII); conditions: pH 7.0
T1 construct: start methionine (N); made in house; host or cells: E. coli BL21(DE3) RIL
T1 sequence (P14780 with tags, fused parts or gaps DEL216-390): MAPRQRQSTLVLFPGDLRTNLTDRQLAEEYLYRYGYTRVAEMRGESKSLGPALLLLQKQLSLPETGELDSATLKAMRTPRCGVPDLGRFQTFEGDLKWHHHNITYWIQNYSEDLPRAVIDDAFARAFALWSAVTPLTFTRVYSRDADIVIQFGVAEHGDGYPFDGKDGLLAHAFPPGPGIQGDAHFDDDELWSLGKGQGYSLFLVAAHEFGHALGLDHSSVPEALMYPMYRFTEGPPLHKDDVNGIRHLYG
Summary of the method: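 proMMP9(20-445;ΔFnII) at 2.8 μM with 50 μM 1,8-ANS in 50 mM HEPES pH 7.0, 100 mM NaCl, 0.001% Tween-20, 2.5 mM MgCl2, 300 μM CaCl2; compounds serially diluted in DMSO. Heated 40–90 °C at 1 °C/min, fluorescence read at 500±25 nm. Tm fit by standard equations; binding fit using DSC/TF-derived thermodynamic parameters.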

[2] = target: T2, proMMP9(67-444;ΔFnII) (SEQ ID NO:5) (Homo sapiens, UniProt P14780, DEL216-390); experiment: ThermoFluor binding assay with proMMP9(67-444;ΔFnII); conditions: pH 7.0
T2 construct: start methionine (N); made in house; host or cells: E. coli BL21(DE3) RIL
T2 sequence (P14780 with tags, fused parts or gaps DEL216-390): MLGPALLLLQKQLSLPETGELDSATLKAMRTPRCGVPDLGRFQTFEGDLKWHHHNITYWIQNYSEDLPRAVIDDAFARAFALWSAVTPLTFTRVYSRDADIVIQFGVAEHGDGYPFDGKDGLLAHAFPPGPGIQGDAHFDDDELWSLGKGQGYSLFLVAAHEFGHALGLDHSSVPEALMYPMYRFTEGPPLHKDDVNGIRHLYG
Summary of the method: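 Thermal shift binding with 3.5 μM proMMP9(67-444;ΔFnII) and 50 μM 1,8-ANS in 50 mM HEPES pH 7.0, 100 mM NaCl, 2.5 mM MgCl2, 300 μM CaCl2, 0.001% Tween-20, with serially diluted compound. Heated 40 to 90° C at 1° C/min; fluorescence-derived Tm fitted using DSC/ThermoFluor thermodynamic parameters.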

[3] = target: T3, full-length proMMP9(1-707) (SEQ ID NO:1) (Homo sapiens, UniProt P14780, R574P); experiment: proMMP9/MMP3 P126 Activation Assay; type: biochemical; conditions: 20 nM proMMP9, 20 nM MMP3, 80 min 37° C.
T3 construct: made in house; host or cells: HEK293 (proMMP9, secreted); E. coli (MMP3)
Protocol: The reaction volume was 50 μL. […] Reactivity of residual MMP3 towards P-126 substrate was minimal under these conditions.

[4] = target: proMMP13(1-268) (SEQ ID NO:7) (Homo sapiens, UniProt P45452); experiment: ThermoFluor binding assay with proMMP13(1-268); design: 6xHis (C); made in house; conditions: pH 7.0
Summary of the method: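 Thermal shift binding with 3.5 μM protein and 25 μM 1,8-ANS in 50 mM HEPES pH 7.0, 100 mM NaCl, 0.001% Tween-20, 2.5 mM MgCl2, 300 μM CaCl2. Samples were heated 40 to 90 °C at 1 °C/min, fluorescence read at 500 nm. Tm shifts across an 11-point DMSO dilution series were fitted with DSC-derived thermodynamic parameters.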

T3 sequence (P14780 20-707 R574P): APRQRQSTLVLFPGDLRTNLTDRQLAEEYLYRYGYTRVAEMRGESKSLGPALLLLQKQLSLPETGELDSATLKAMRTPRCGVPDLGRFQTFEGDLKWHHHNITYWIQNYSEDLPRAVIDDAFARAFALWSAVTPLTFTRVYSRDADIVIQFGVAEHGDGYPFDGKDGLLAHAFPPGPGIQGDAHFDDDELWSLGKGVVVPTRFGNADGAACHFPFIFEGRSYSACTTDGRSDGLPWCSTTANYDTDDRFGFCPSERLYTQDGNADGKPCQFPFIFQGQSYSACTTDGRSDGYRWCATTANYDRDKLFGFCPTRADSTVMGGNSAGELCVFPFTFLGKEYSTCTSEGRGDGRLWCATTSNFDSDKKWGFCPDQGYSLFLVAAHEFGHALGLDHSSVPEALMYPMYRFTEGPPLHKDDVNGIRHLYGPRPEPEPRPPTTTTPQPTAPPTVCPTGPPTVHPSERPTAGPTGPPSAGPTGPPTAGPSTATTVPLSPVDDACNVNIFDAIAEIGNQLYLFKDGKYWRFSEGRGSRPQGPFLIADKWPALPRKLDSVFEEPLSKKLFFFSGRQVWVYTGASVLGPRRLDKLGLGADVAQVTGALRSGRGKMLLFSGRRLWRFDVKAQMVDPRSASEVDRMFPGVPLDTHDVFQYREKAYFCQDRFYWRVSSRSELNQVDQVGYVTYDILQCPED

SMILES	pKd [1]	pKd [2]	pIC50 [3]	pKd [4]
CCOc1ccc(-c2ncco2)cc1Nc1nc(-c2sc(N)nc2C)cs1 [Example 79, N^2-(2-Ethoxy-5-oxazol-2-yl-phenyl)-4′-methyl-[4,5′]bithiazolyl-2,2′diamine.HBr]	5.92	7.28	6.26	6.62
CCOc1ccc(-c2ncco2)cc1Nc1nc(-c2sc(C)nc2C)cs1 [Example 80, (2′,4′-Dimethyl-[4,5′]bithiazolyl-2-yl)-(2-ethoxy-5-oxazol-2-yl-phenyl)-amine.TFA]	4.64	5.74	6.19	5.44
CCOC(=O)c1ccc(OCC)c(Nc2nc(-c3sc(N)nc3C)cs2)c1 [Example 81, 3-(2′-Amino-4′-methyl-[4,5′]bithiazolyl-2-ylamino)-4-ethoxy-benzoic acid ethyl ester.TFA]	6.28	6.21	6.19	6.43
CCOC(=O)c1ccc(OCC)c(Nc2nc(-c3sc(NC(C)=O)nc3C)cs2)c1 [Example 83, 3-(2′-Acetylamino-4′-methyl-[4,5′]bithiazolyl-2-ylamino)-4-ethoxy-benzoic acid ethyl ester.HBr]	5.41	6.31	6.32	5.82
COc1ccc(C(N)=O)cc1Nc1nc(-c2sc(NC(C)=O)nc2C)cs1 [Example 85, 3-(2′-Acetylamino-4′-methyl-[4,5′]bithiazolyl-2-ylamino)-4-methoxy-benzamide.HBr]	5.46	6.12	6.57	4.37
COC(=O)c1ccc(OC)c(Nc2nc(-c3sc(N)nc3C)cs2)c1 [Example 86, 3-(2′-Amino-4′-methyl-[4,5′]bithiazolyl-2-ylamino)-4-methoxy-benzoic acid methyl ester TFA]	5.92	6.70	6.21	5.47
COc1ccc(C(N)=O)cc1Nc1nc(-c2sc(N)nc2C(F)(F)F)cs1 [Example 87, 3-(2′-Amino-4′-trifluoromethyl-[4,5′]bithiazolyl-2-ylamino)-4-methoxy-benzamide.TFA]	6.40	6.42	5.92	5.52
Cc1nc(N(C)C)sc1-c1csc(Nc2cc(C(N)=O)ccc2OC(C)C)n1 [Example 88, 3-(2′-Dimethylamino-4′-methyl-[4,5′]bithiazolyl-2-ylamino)-4-isopropoxy-benzamide.TFA]	7.00	6.19	6.42	6.02
Cc1nc(N2CCOCC2)sc1-c1csc(Nc2cc(C(N)=O)ccc2OC(C)C)n1 [Example 89, 4-Isopropoxy-3-(4′-methyl-2′-morpholin-4-yl-[4,5′]bithiazolyl-2-ylamino)-benzamide.TFA]	7.20	6.41	6.48	6.15
Cc1nc(N2CCN(C)CC2)sc1-c1csc(Nc2cc(C(N)=O)ccc2OC(C)C)n1 [Example 90, 4-Isopropoxy-3-[4′-methyl-2′-(4-methyl-piperazin-1-yl)-[4,5′]bithiazolyl-2-ylamino]-benzamide.TFA]	7.43	6.77	7.00	6.17
CCN(CC)c1nc(C)c(-c2csc(Nc3cc(C(N)=O)ccc3OC(C)C)n2)s1 [Example 94, 3-(2′-Diethylamino-4′-methyl-[4,5′]bithiazolyl-2-ylamino)-4-isopropoxy-benzamide.TFA]	6.51	5.77	6.40	5.21
Cc1nc(Nc2cccnc2)sc1-c1csc(Nc2cc(C(N)=O)ccc2OC(C)C)n1 [Example 95, 4-Isopropoxy-3-[4′-methyl-2′-(pyridin-3-ylamino)-[4,5′]bithiazolyl-2-ylamino]-benzamide.TFA]	6.66	5.55	6.39	5.39
Cc1nc(Nc2ccccn2)sc1-c1csc(Nc2cc(C(N)=O)ccc2OC(C)C)n1 [Example 96, 4-Isopropoxy-3-[4′-methyl-2′-(pyridin-2-ylamino)-[4,5′]bithiazolyl-2-ylamino]-benzamide.TFA]	6.55	5.42	~5.30	4.80
Cc1nc(-c2ccncc2)sc1-c1csc(Nc2cc(C(N)=O)ccc2OC(C)C)n1 [Example 98, 4-Isopropoxy-3-(4′-methyl-2′-pyridin-4-yl-[4,5′]bithiazolyl-2-ylamino)-benzamide.TFA]	< 4.02	6.17	6.21	5.64
CCOC(=O)c1nc(C)c(-c2csc(Nc3cc(C(N)=O)ccc3OC(C)C)n2)s1 [Example 99, 2-(5-carbamoyl-2-isopropoxy-phenylamino)-4′-methyl-[4,5′]bithiazolyl-2′-carboxylic acid ethyl esterHBr]	6.57	5.96	6.23	5.62
Cc1nc(C(=O)O)sc1-c1csc(Nc2cc(C(N)=O)ccc2OC(C)C)n1 [Example 100, 2-(5-Carbamoyl-2-isopropoxy-phenylamino)-4′-methyl-[4,5′]bithiazolyl-2′-carboxylic acid]	6.12	6.49	6.66	5.85
Cc1nc(C(=O)N2CCN(C)CC2)sc1-c1csc(Nc2cc(C(N)=O)ccc2OC(C)C)n1 [Example 101, 4-Isopropoxy-3-[4′-methyl-2′-(4-methyl-piperazine-1-carbonyl)-[4,5′]bithiazolyl-2-ylamino]-benzamide.TFA]	6.54	5.96	6.77	6.29
CCN1CCN(C(=O)c2nc(C)c(-c3csc(Nc4cc(C(N)=O)ccc4OC(C)C)n3)s2)CC1 [Example 102, 3-[2′-(4-Ethyl-piperazine-1-carbonyl)-4′-methyl-[4,5′]bithiazolyl-2-ylamino]-4-isopropoxy-benzamide.TFA]	6.15	6.14	6.89	6.18
Cc1nc(C(=O)N2CCN(C(C)C)CC2)sc1-c1csc(Nc2cc(C(N)=O)ccc2OC(C)C)n1 [Example 103, 4-Isopropoxy-3-[2′-(4-isopropyl-piperazine-1-carbonyl)-4′-methyl-[4,5]bithiazolyl-2-ylamino]-benzamide.TFA]	6.32	6.00	7.01	6.35
Cc1nc(C(=O)N2CCCN(C)CC2)sc1-c1csc(Nc2cc(C(N)=O)ccc2OC(C)C)n1 [Example 104, 4-Isopropoxy-3-[4′-methyl-2′-(4-methyl-[1,4]diazepane-1-carbonyl)-[4,5′]bithiazolyl-2-ylamino]-benzamide.TFA]	6.34	6.21	6.89	6.28
Cc1nc(C(=O)N(C)C)sc1-c1csc(Nc2cc(C(N)=O)ccc2OC(C)C)n1 [Example 106, 2-(5-Carbamoyl-2-isopropoxy-phenylamino)-4′-methyl-[4,5′]bithiazolyl-2′-carboxylic acid dimethylamide.TFA]	5.92	6.30	6.04	5.66
Cc1nc(C(=O)N(C)CCN(C)C)sc1-c1csc(Nc2cc(C(N)=O)ccc2OC(C)C)n1 [Example 107, 2-(5-Carbamoyl-2-isopropoxy-phenylamino)-4′-methyl-[4,5′]bithiazolyl-2′-carboxylic acid (2-dimethylamino-ethyl)-methyl-amide.TFA]	6.70	6.28	6.82	6.27
Cc1nc(C(=O)N2CCN(C3CCCCC3)CC2)sc1-c1csc(Nc2cc(C(N)=O)ccc2OC(C)C)n1 [Example 108, 3-[2′-(4-Cyclohexyl-piperazine-1-carbonyl)-4′-methyl-[4,5′]bithiazolyl-2-ylamino]-4-isopropoxy-benzamide.TFA]	6.51	< 4.02	5.77	6.49
